Laboratory results reported in US10485235B2, “Aryloxypyrimidinyl ethers as herbicides” (FMC Corporation, priority 2015, dated 2019).

Tests used:
Assay type in all cases: in vivo
kochia (Kochia scoparia) [1] = assay: Test A preemergence, kochia; settings: Preemergence, 0 to 100 scale (0 no effect, 100 complete control)
Summary of the method: (§1)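 Pre- and postemergence greenhouse screen in loam–sand soil. Test chemicals were delivered in a non-phytotoxic solvent with surfactant, preemergence as a directed spray onto seeded soil and postemergence onto 2–10 cm seedlings. Injury was judged by eye after ~10 days on a 0–100 scale.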

[2] = test system: barnyardgrass (Echinochloa crus-galli); assay: Test A postemergence, barnyardgrass; settings: postemergence, 0 to 100 scale, 0 is no effect, 100 is complete control, approximately 10 days
Summary of the method: as §1

corn (Zea mays) = assay: Test A postemergence, corn; settings: postemergence, 0 to 100 scale, 0 is no effect, 100 is complete control, approximately 10 days
Summary of the method: as §1

rice (Oryza sativa) = assay: Test B flooded paddy test, rice; settings: 250 g ai/ha, Flood; visual rating after 13 to 15 days; scale 0 to 100, 0 is no effect, 100 is complete control
Summary of the method: (§2)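 2-leaf plants; flood to 3 cm, dose into water, hold depth; greenhouse 13–15 d; visual score 0–100 vs controls; dash = not tested.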

[3] = test system: sedge, umbrella (small-flower umbrella sedge, Cyperus difformis); assay: Test B flooded paddy test, umbrella sedge; settings: 250 g ai/ha, Flood; visual rating after 13 to 15 days; scale 0 to 100, 0 is no effect, 100 is complete control
Summary of the method: as §2

[4] = test system: ragweed (common ragweed, Ambrosia elatior); assay: Test A postemergence, ragweed; settings: postemergence, 0 to 100 scale, 0 is no effect, 100 is complete control, approximately 10 days
Summary of the method: as §1

kochia (Kochia scoparia) [5] = assay: Test A postemergence, kochia; settings: postemergence, 0 to 100 scale, 0 is no effect, 100 is complete control, approximately 10 days
Summary of the method: as §1

[6] = test system: foxtail, giant (giant foxtail, Setaria faberii); assay: Test A postemergence, giant foxtail; settings: postemergence, 0 to 100 scale, 0 is no effect, 100 is complete control, approximately 10 days
Summary of the method: as §1

[7] = test system: wheat (Triticum aestivum); assay: Test A postemergence, wheat; settings: postemergence, 0 to 100 scale, 0 is no effect, 100 is complete control, approximately 10 days
Summary of the method: as §1

[8] = test system: pigweed (Amaranthus retroflexus); assay: Test A postemergence, pigweed; settings: postemergence, 0 to 100 scale, 0 is no effect, 100 is complete control, approximately 10 days
Summary of the method: as §1

[9] = test system: pigweed (Amaranthus retroflexus); assay: Test A preemergence, pigweed; settings: Preemergence, 0 to 100 scale (0 no effect, 100 complete control)
Summary of the method: as §1

[10] = test system: barnyardgrass (Echinochloa crus-galli); assay: Test A preemergence, barnyardgrass; settings: Preemergence, 0 to 100 scale (0 no effect, 100 complete control)
Summary of the method: as §1

[11] = test system: foxtail, giant (giant foxtail, Setaria faberii); assay: Test A preemergence, giant foxtail; settings: Preemergence, 0 to 100 scale (0 no effect, 100 complete control)
Summary of the method: as §1

[12] = test system: barnyardgrass (Echinochloa crus-galli); assay: Test B flooded paddy test, barnyardgrass; settings: 250 g ai/ha, Flood; visual rating after 13 to 15 days; scale 0 to 100, 0 is no effect, 100 is complete control
Summary of the method: as §2

[13] = test system: ryegrass, Italian (Italian ryegrass, Lolium multiflorum); assay: Test A preemergence, Italian ryegrass; settings: Preemergence, 0 to 100 scale (0 no effect, 100 complete control)
Summary of the method: as §1

[14] = test system: galium (catchweed bedstraw, Galium aparine); assay: Test A postemergence, galium; settings: postemergence, 0 to 100 scale, 0 is no effect, 100 is complete control, approximately 10 days
Summary of the method: as §1

[15] = test system: ducksalad (Heteranthera limosa); assay: Test B flooded paddy test, ducksalad; settings: 250 g ai/ha, Flood; visual rating after 13 to 15 days; scale 0 to 100, 0 is no effect, 100 is complete control
Summary of the method: as §2

[16] = test system: blackgrass (Alopecurus myosuroides); assay: Test A postemergence, blackgrass; settings: postemergence, 0 to 100 scale, 0 is no effect, 100 is complete control, approximately 10 days
Summary of the method: as §1

[17] = test system: ragweed (common ragweed, Ambrosia elatior); assay: Test A preemergence, ragweed; settings: Preemergence, 0 to 100 scale (0 no effect, 100 complete control)
Summary of the method: as §1

[18] = test system: ryegrass, Italian (Italian ryegrass, Lolium multiflorum); assay: Test A postemergence, Italian ryegrass; settings: postemergence, 0 to 100 scale, 0 is no effect, 100 is complete control, approximately 10 days
Summary of the method: as §1

SMILES | Plant response rating, Kochia (kochia (Kochia scoparia) [1]; 31 g ai/ha) | Plant response rating, Kochia (kochia (Kochia scoparia) [1]; 125 g ai/ha) | Plant response rating, Barnyardgrass ([2]; 31 g ai/ha) | Plant response rating, Barnyardgrass ([2]; 125 g ai/ha) | Plant response rating, Corn (corn (Zea mays); 31 g ai/ha) | Plant response rating, Corn (corn (Zea mays); 125 g ai/ha) | Plant response rating, Rice (rice (Oryza sativa)) | Plant response rating, Sedge, Umbrella [3] | Plant response rating, Ragweed ([4]; 31 g ai/ha) | Plant response rating, Ragweed ([4]; 125 g ai/ha) | Plant response rating, Kochia (kochia (Kochia scoparia) [5]; 31 g ai/ha) | Plant response rating, Kochia (kochia (Kochia scoparia) [5]; 125 g ai/ha) | Plant response rating, Foxtail, Giant ([6]; 31 g ai/ha) | Plant response rating, Foxtail, Giant ([6]; 125 g ai/ha) | Plant response rating, Wheat ([7]; 31 g ai/ha) | Plant response rating, Wheat ([7]; 125 g ai/ha) | Plant response rating, Pigweed ([8]; 31 g ai/ha) | Plant response rating, Pigweed ([8]; 125 g ai/ha) | Plant response rating, Pigweed ([9]; 31 g ai/ha) | Plant response rating, Pigweed ([9]; 125 g ai/ha) | other results
Cc1cccc(Oc2ncc(Cl)cn2)c1OCCCC(F)(F)F [Compound 55] | 0 | 60 | 10 | 20 | 0 | 20 | 45 | 95 | 0 | 0 | 10 | 20 | 20 | 60 | 0 | 0 | 10 | 30 | 0 | 50 | Plant response rating, Barnyardgrass ([10]; 31 g ai/ha): 10; Plant response rating, Barnyardgrass ([10]; 125 g ai/ha): 70; Plant response rating, Foxtail, Giant ([11]; 31 g ai/ha): 10; Plant response rating, Foxtail, Giant ([11]; 125 g ai/ha): 80; Plant response rating, Barnyardgrass [12]: 40; Plant response rating, Ryegrass, Italian ([13]; 31 g ai/ha): 0; Plant response rating, Ryegrass, Italian ([13]; 125 g ai/ha): 10; Plant response rating, Galium ([14]; 31 g ai/ha): 0; Plant response rating, Galium ([14]; 125 g ai/ha): 20; Plant response rating, Ducksalad [15]: 100; Plant response rating, Blackgrass ([16]; 31 g ai/ha): 0; Plant response rating, Blackgrass ([16]; 125 g ai/ha): 20; Plant response rating, Ragweed ([17]; 31 g ai/ha): 0; Plant response rating, Ragweed ([17]; 125 g ai/ha): 0; Plant response rating, Ryegrass, Italian ([18]; 31 g ai/ha): 0; Plant response rating, Ryegrass, Italian ([18]; 125 g ai/ha): 20
O=C(CCC(F)(F)F)COc1c(Br)cccc1Oc1ncc(Cl)cn1 [Compound 56] | 0 | 50 | 0 | 20 | 10 | 30 | 30 | 75 | 0 | 0 | 0 | 60 | 0 | 30 | 0 | 20 | 40 | 100 | 0 | 80 | Plant response rating, Barnyardgrass ([10]; 31 g ai/ha): 0; Plant response rating, Barnyardgrass ([10]; 125 g ai/ha): 90; Plant response rating, Foxtail, Giant ([11]; 31 g ai/ha): 0; Plant response rating, Foxtail, Giant ([11]; 125 g ai/ha): 90; Plant response rating, Barnyardgrass [12]: 0; Plant response rating, Ryegrass, Italian ([13]; 31 g ai/ha): 0; Plant response rating, Ryegrass, Italian ([13]; 125 g ai/ha): 0; Plant response rating, Galium ([14]; 31 g ai/ha): 10; Plant response rating, Galium ([14]; 125 g ai/ha): 40; Plant response rating, Ducksalad [15]: 85; Plant response rating, Blackgrass ([16]; 31 g ai/ha): 0; Plant response rating, Blackgrass ([16]; 125 g ai/ha): 20; Plant response rating, Ragweed ([17]; 31 g ai/ha): 0; Plant response rating, Ragweed ([17]; 125 g ai/ha): 0; Plant response rating, Ryegrass, Italian ([18]; 31 g ai/ha): 0; Plant response rating, Ryegrass, Italian ([18]; 125 g ai/ha): 10
